Holding throughout (test): NCI anticancer screen, dose series, 48 h
Experiment [1] has as its system MDA-MB-231.
Experiment [2] relates to ACHN.
The subject of experiment [3] is EKVX.
Experiment [4] relates to HCT-15.
The subject of experiment [5] is OVCAR-5.
Experiment [6] relates to HT-29.
Experiment [7] concerns SK-MEL-2.
The test system of experiment [8] is OVCAR-8.
Experiment [9] has as its system TK-10.
For experiment [10], the system named is SNB-19.
Experiment [11] deals with CAKI-1.
Experiment [12] concerns RPMI-8226.
Experiment [13] has as its system UACC-62.
Experiment [14] deals with MDA-MB-435.
Experiment [15] relates to NCI-H460.
Experiment [16] concerns Hs-578T.
In experiment [17] the test system is NCI-H226.
For experiment [18], the system named is T47D.
The test system of experiment [19] is UACC-257.
Experiment [20] has as its system BT-549.

Molecules are shown by their SMILES.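 Each compound was tested at five concentrations against cells in 96-well plates for 48 hours. GI50 marks 50% less growth.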 Active and inactive are the calls of the source. Rule as the data show it: active = GI50 up to about 1.1 µM and inactive = higher.

As to `C[N+]1(CCN=C=NC2CCCCC2)CCOCC1`, the GI50 was > 100 µM (inactive) in experiment [1]; > 100 µM (inactive) in experiment [2]; > 100 µM (inactive) in [3]; above 100 µM in experiment [4]; > 100 µM (inactive) in experiment [5]; > 100 µM (inactive) in [6]. Further, the GI50 in experiment [7], in [8], in experiment [9], in experiment [10], in [11] and in [12] was > 100 µM (inactive) in each case. Moreover, the GI50 in [13], in experiment [14], in experiment [15], in experiment [16], in [17] and in experiment [18] was > 100 µM (inactive) in each case. For the same molecule, the GI50 in experiment [19] and in experiment [20] was > 100 µM (inactive) each time.
Regarding `O=C1C(N2CCN(CCOCCO)CC2)=C(Cl)C(=O)c2ncccc21`, the GI50 is 19.2 µM (inactive) in [1]; 19.1 µM (inactive) in experiment [2]; 19.6 µM (inactive) in experiment [3]; 18.1 µM in experiment [4]; 24.5 µM (inactive) in [5]; 22.6 µM (inactive) in [6]. Also, the GI50 in [7] was 20.9 µM (inactive); in experiment [8], 18.1 µM (inactive); in experiment [9], 29.4 µM (inactive); in experiment [10], > 10 µM (inactive); in [11], 17.3 µM (inactive); in experiment [12] it was 19 µM (inactive). The GI50 in experiment [13] was 21.5 µM (inactive); in [14], 1.88 µM (inactive); in experiment [15] it was 75.2 µM (inactive); in experiment [16] it was > 10 µM (inactive); in experiment [17] it was > 10 µM (inactive); in experiment [18] it was 2.58 µM (inactive). The values for the GI50 in [19] and in experiment [20] were 22 µM (inactive) and 4.89 µM (inactive), respectively.
Consider `O=C(Nc1ccccc1)N(CCN(Cc1ccccc1)C(=O)Nc1ccccc1)CCN(Nc1ccccc1)C(=O)Nc1ccccc1`, for which the GI50 in [1] was > 100 µM (inactive); in experiment [2] it was > 100 µM (inactive); in [3] it was > 100 µM (inactive); in experiment [4], above 100 µM; in [5] it was > 100 µM (inactive); in experiment [6], > 100 µM (inactive). The GI50 in experiment [7], in [8], in experiment [9], in experiment [10], in experiment [11] and in [12] was > 100 µM (inactive) each time. The GI50 in experiment [13], in [14], in experiment [15], in experiment [16], in experiment [17] and in [18] was > 100 µM (inactive) in each case. Moreover, the GI50 in [19] and in experiment [20] was > 100 µM (inactive) throughout.
Consider `CO[C@H](C)[C@](O)(C(=O)OCC1=CCN2CC[C@@H](O)[C@H]12)C(C)C`, for which the GI50 in experiment [1] is > 100 µM (inactive); in [2] it was 73.3 µM (inactive); in [3], > 100 µM (inactive); in [4], 55.2 µM; in experiment [5] it was > 100 µM (inactive); in experiment [6], > 100 µM (inactive). Moreover, the GI50 in experiment [7], in experiment [8], in experiment [9], in [10], in experiment [11] and in experiment [12] was > 100 µM (inactive) in each case. Also, the GI50 is > 100 µM (inactive) in [13]; > 100 µM (inactive) in experiment [14]; 28.5 µM (inactive) in experiment [15]; > 100 µM (inactive) in [16]; > 100 µM (inactive) in experiment [17]; > 100 µM (inactive) in experiment [18]. Further, the GI50 in [19] and in [20] was > 100 µM (inactive) each time.
With `CN1C(=O)N/C(=C\c2ccc(S(=O)(=O)N/N=C\C(O)C(O)C(O)CO)cc2)C1=O` (stereo not given), the GI50 was > 100 µM (inactive) in experiment [1]; > 100 µM (inactive) in [2]; > 100 µM (inactive) in experiment [3]; above 100 µM in experiment [4]; > 100 µM (inactive) in experiment [5]; > 100 µM (inactive) in [6]. For the same molecule, the GI50 in [7], in experiment [8], in [9], in experiment [10], in experiment [11] and in [12] was > 100 µM (inactive) each time. Besides, the GI50 is > 100 µM (inactive) in [13]; > 100 µM (inactive) in experiment [14]; > 100 µM (inactive) in [15]; > 100 µM (inactive) in experiment [16]; > 10 µM (inactive) in [17]; > 100 µM (inactive) in experiment [18]. Moreover, the GI50 in [19] and in experiment [20] was > 100 µM (inactive) each time.
Take `N#Cc1c(Cl)c2ccccc2n2c1nc1ccccc12`: the GI50 in experiment [1] is 23.8 µM (inactive); in experiment [2] it was 18 µM (inactive); in [3] it was 19.9 µM (inactive); in experiment [4], 15.2 µM; in experiment [5], > 100 µM (inactive); in experiment [6] it was 20.3 µM (inactive). Moreover, the GI50 was 37.3 µM (inactive) in [7]; 21.9 µM (inactive) in [8]; 19.4 µM (inactive) in experiment [9]; 74.6 µM (inactive) in [10]; 21.9 µM (inactive) in experiment [11]; 31.3 µM (inactive) in experiment [12]. Besides, the GI50 in experiment [13] was 43.5 µM (inactive); in experiment [14], 56.1 µM (inactive); in experiment [15], 69.7 µM (inactive); in [16], 17.7 µM (inactive); in experiment [17] it was 21.6 µM (inactive); in [18], 27.2 µM (inactive). Further, the GI50 was 42.4 µM (inactive) in experiment [19] and 71 µM (inactive) in experiment [20].
On to `C/C=C/C(O)P(=O)(OC)OC` (stereo not given), for which the GI50 in experiment [1] is 0.428 µM (active); in experiment [2] it was 0.344 µM (active); in experiment [3], 0.308 µM (active); in [4] it was 0.309 µM; in experiment [5], 0.284 µM (active); in experiment [6], 0.33 µM (active). The GI50 in [7] is 0.324 µM (active); in experiment [8], 0.451 µM (active); in [9], 0.366 µM (active); in experiment [10], 0.436 µM (active); in [11], 0.589 µM (active); in experiment [12], 0.162 µM (active). Also, the GI50 in experiment [13] was 0.27 µM (active); in [14], 0.267 µM (active); in [15] it was 0.272 µM (active); in [16], 0.213 µM (active); in [17] it was 0.332 µM (active); in experiment [18] it was 0.334 µM (active). Also, the GI50 was 0.256 µM (active) in [19] and 0.594 µM (active) in [20].
With `Cc1cccc(/C=N/NC(=S)NCc2ccccn2)n1`, the GI50 in experiment [1] was 33.5 µM (inactive); in experiment [2], 10.4 µM (inactive); in [3], 37.2 µM (inactive); in [4], 23.7 µM; in experiment [5], > 77.1 µM (inactive); in [6], 27.7 µM (inactive). The GI50 in experiment [7] is > 100 µM (inactive); in experiment [8], 32.1 µM (inactive); in [9], 99.3 µM (inactive); in experiment [10], 47.5 µM (inactive); in experiment [11] it was 26.4 µM (inactive); in experiment [12], 44.6 µM (inactive). The GI50 was 17.7 µM (inactive) in experiment [13]; 36.9 µM (inactive) in experiment [14]; 15.9 µM (inactive) in experiment [15]; > 93.5 µM (inactive) in [16]; 29.3 µM (inactive) in experiment [17]; 31 µM (inactive) in experiment [18]. Also, the GI50 is 41.7 µM (inactive) in experiment [19] and 58.2 µM (inactive) in experiment [20].
`COC(=O)CCC(C)[C@H]1CCC2C3CC[C@@H]4CC5(CC[C@]4(C)C3C[C@H](OC(C)=O)[C@@]21C)OOC1(CCCCC1)OO5` (stereo not given in full): the GI50 in [1] was > 100 µM (inactive); in [2], 8.32 µM (inactive); in [3], 1.9 µM (inactive); in [4], 11.9 µM; in [5] it was 17.3 µM (inactive); in [6], 14.2 µM (inactive). Also, the GI50 in [7] was 5.26 µM (inactive); in [8], 13.7 µM (inactive); in experiment [9] it was > 100 µM (inactive); in experiment [10], > 100 µM (inactive); in [11], 4.03 µM (inactive); in experiment [12] it was 1.94 µM (inactive). In addition, the GI50 is > 100 µM (inactive) in [13]; 7.35 µM (inactive) in [14]; 4.69 µM (inactive) in [15]; 13.4 µM (inactive) in experiment [16]; > 100 µM (inactive) in experiment [17]; 2.75 µM (inactive) in experiment [18]. Besides, the figures for the GI50 in [19] and in experiment [20] were 4.49 µM (inactive) and 27.6 µM (inactive), respectively.
For the molecule `O=c1ssc(Cl)c1Nc1c(Cl)ssc1=O`, the GI50 in experiment [1] was 22.3 µM (inactive); in experiment [2], > 40 µM (inactive); in experiment [3], 20.6 µM (inactive); in [4] it was 18.6 µM; in [5] it was 19.4 µM (inactive); in experiment [6] it was 22.4 µM (inactive). In addition, the GI50 is 19.4 µM (inactive) in experiment [7]; 21.5 µM (inactive) in [8]; 19 µM (inactive) in experiment [9]; 25.7 µM (inactive) in [10]; 15.2 µM (inactive) in [11]; 9.08 µM (inactive) in [12]. Also, the GI50 was > 40.7 µM (inactive) in experiment [13]; 18 µM (inactive) in [14]; 18.8 µM (inactive) in experiment [15]; 36.4 µM (inactive) in experiment [16]; 28.4 µM (inactive) in [17]; 9.2 µM (inactive) in experiment [18]. The GI50 in experiment [19] is 16.5 µM (inactive); in experiment [20], 18.7 µM (inactive).

For the origin of these results see ChEMBL document CHEMBL1201862, “PubChem BioAssay data set” (2004).
